One experiment has as its system Influenza B virus. The experiment is described as follows: Antiviral activity against Influenza B virus assessed as inhibition of virus-induced cytopathic effect. The experiment is classed as functional, organism-based.
The next experiment relates to Influenza A virus. The experiment is described as follows: Antiviral activity against Influenza A virus assessed as inhibition of virus-induced cytopathic effect. It counts as functional, organism-based. In general terms: Cytopathic effects are the visible damage that an infection or toxin causes in cultured cells.
The nature of experiment [1]: Binding affinity to influenza A virus RNA by one-dimensional NMR spectroscopy method.
A short description of experiment [2]: Binding affinity to Escherichia coli ThiM TPP riboswitch.
A short description of experiment [3]: Binding affinity to HIV-1 RNA by SPR analysis. On the set-up: species or system Human immunodeficiency virus 1.
Another experiment relates to Staphylococcus aureus. The experiment is described as follows: Antibacterial activity against Staphylococcus aureus assessed as bacterial growth inhibition. The experiment is classed as functional.
Experiment [4] relates to Escherichia coli. The experiment is described as follows: Antibacterial activity against Escherichia coli assessed as bacterial growth inhibition. The experiment is classed as functional.
The target in a further experiment is RNA. The experiment is described as follows: Binding affinity to RNA (unknown origin) by fluorescence based analysis. The experiment is classed as nucleic-acid assay.
The nature of experiment [5]: Binding affinity to HIV1 TAR RNA assessed as inhibition of Tat-mediated transactivation. It counts as functional, Human immunodeficiency virus 1.
Experiment [6] can be described thus: Inhibition of pre-miR-372 biogenesis in human AGS cells. It counts as cell-based.
The nature of experiment [7]: Binding affinity to pre-miR-372 (unknown origin).
Experiment [8] is described as follows: Inhibition of pri-miR-96 biogenesis in human MDA-MB-231 cells. The experiment is classed as cell-based.
A short description of experiment [9]: Binding affinity to pri-miR-96 (unknown origin).
Experiment [10] concerns Escherichia coli. The experiment is described as follows: Binding affinity to Escherichia coli ThiM TPP riboswitch assessed as inhibition of conformational switching.
The target of experiment [11] is T1, Sulfhydryl oxidase 1 (Homo sapiens) (UniProt O00391).
T1 sequence (whole entry): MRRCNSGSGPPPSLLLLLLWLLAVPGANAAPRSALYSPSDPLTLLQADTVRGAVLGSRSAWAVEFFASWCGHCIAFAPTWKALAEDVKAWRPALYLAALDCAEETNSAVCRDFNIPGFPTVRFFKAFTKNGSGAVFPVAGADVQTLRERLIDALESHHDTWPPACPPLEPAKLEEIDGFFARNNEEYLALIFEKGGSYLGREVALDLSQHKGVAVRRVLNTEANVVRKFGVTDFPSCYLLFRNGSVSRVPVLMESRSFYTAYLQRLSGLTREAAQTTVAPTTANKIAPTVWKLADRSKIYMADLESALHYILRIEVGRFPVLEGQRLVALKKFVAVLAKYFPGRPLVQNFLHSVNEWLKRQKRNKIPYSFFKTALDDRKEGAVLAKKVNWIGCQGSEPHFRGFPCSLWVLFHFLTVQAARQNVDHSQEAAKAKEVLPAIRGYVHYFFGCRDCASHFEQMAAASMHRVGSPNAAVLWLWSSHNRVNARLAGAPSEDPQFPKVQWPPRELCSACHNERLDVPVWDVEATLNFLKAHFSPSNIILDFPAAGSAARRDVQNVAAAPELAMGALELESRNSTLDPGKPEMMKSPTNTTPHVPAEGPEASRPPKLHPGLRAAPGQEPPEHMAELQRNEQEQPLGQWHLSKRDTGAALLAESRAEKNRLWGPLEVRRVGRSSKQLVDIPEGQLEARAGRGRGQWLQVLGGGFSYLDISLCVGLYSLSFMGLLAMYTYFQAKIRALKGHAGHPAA
The experiment is described as follows: Inhibition of QSOX1 in human MDA-MB-231 cells at 20 uM relative to control. The experiment is classed as cell-based.

For a further experiment, the target named is T2, Sulfhydryl oxidase 1 (Homo sapiens, UniProt O00391).
T2 sequence (O00391 whole entry): T1 sequence (whole entry)
The experiment is described as follows: Binding affinity to QSOX1 in human MDA-MB-231 cells. It counts as cell-based.

A short description of experiment [12]: Binding affinity to bacteria RNA by HTS method.
Experiment [13] concerns the target microRNA 21. The experiment is described as follows: Inhibition of pre-miR-21 biogenesis in human MDA-MB-231 cells. The experiment is classed as cell-based.
For experiment [14], the target named is microRNA 21. The experiment is described as follows: Inhibition of pre-miR-21 biogenesis in human Triple-negative breast cancer cell. The experiment is classed as cell-based.
Experiment [15] has as its target microRNA 21. The experiment is described as follows: Binding affinity to pre-miR-21 (unknown origin). The experiment is classed as nucleic-acid assay.
Another experiment deals with Bacterial 70S ribosome. The experiment is described as follows: Inhibition of Mycobacterium smegmatis ribosomes assessed as inhibition of translation activity. It counts as subcellular, Mycolicibacterium smegmatis.

Molecules are shown by their SMILES. In brackets after ≈: the same amount, converted by molar mass.

Consider 30 compounds from ChEMBL document CHEMBL5338781, “Fragment-Based Approaches to Identify RNA Binders” (J Med Chem, 2023).

For the compound `COc1cc2nc(N3CCNCC3)nc(N)c2cc1OC` [AMINODIMETHOXYQUINAZOLINYLPIPERAZINE], the EC50 in the experiment on Influenza B virus and in the experiment with Influenza A virus was 71 µM each time. Also, in experiment [1], the Kd came to 50 µM.

For `CNCc1cc2cccnc2s1`, the Kd in [2] was 60 µM. For `COc1ccc2nc3cc(F)ccc3c(N)c2c1`, in [3], the Kd is 59 µM. `Cc1ncc(CN=[N+]=[N-])cn1`: in [2], the Kd stood at 49 µM. Take `CN(C)CCCOc1ccc(C(NC(=O)c2ccc(-c3cccc(NC(=O)c4ccc(-c5ccccc5)cc4)c3)o2)C(=O)N2CCNCC2)cc1` (centres undefined): the MIC with Staphylococcus aureus is 3 µM (≈ 2.06 µg/mL); in the experiment on Escherichia coli [4] it was 6 µM (≈ 4.11 µg/mL). For `Nc1ccnc(N)n1` [DIAMINOPYRIMIDINE], the Kd on RNA turned out to be 80 µM. This counts as double-digit micromolar. Turning to `Nc1ccc2nc(N)nc(N)c2c1` [QUINAZOLINE-2,4,6-TRIAMINE], the IC50 in [5] came out at 40 µM. In [6], `O=c1[nH]cccc1-c1nc(-c2cccc(Cl)c2)no1` had an IC50 of roughly 1 µM. Also, binding in experiment [7] was put at a Kd of 0.3 µM. For the compound `CCCN(CC(=O)N(CCC)CC(=O)N(CC(N)=O)Cc1cn(CCCNC(=O)CCCOc2c(C(C)(C)C)cc(-c3nc4cc(N5CCN(C)CC5)ccc4[nH]3)cc2C(C)(C)C)nn1)C(=O)CCCOc1cccc(-c2nc3ccc(-c4nc5ccc(N6CCN(C)CC6)cc5[nH]4)cc3[nH]2)c1`, the IC50 in experiment [8] is roughly 0.05 µM. The compound further yielded a Kd in experiment [9] of 0.085 µM. As to `c1cc(N2CCNCC2)c(NCc2ccc3nccnc3c2)cn1`, the K in the experiment with Escherichia coli [10] was determined as 68 µM. Besides, the Kd in experiment [2] was determined as 0.068 µM.

In the case of `CN1CCN(c2ccc3nc(-c4cc(C(C)(C)C)c(OCCCC(=O)NCCCN=[N+]=[N-])c(C(C)(C)C)c4)[nH]c3c2)CC1`, the Kd in [9] worked out at 1.5 µM. On to `C#CCCC1(CCC(=O)N(C)[C@H]2CC[C@@H](c3ccc(Cl)c(Cl)c3)c3ccccc32)N=N1`, for which the inhibition in [11] came to 15%. `Nc1ccc2ccnc(N)c2c1`: the IC50 in [5] amounted to 150 µM. Compound `CCOC(=O)C1=C(Nc2ccccc2)S/C(=C\c2ccc(OCCOCCOCCOCCNC(=O)CCC(=O)N(C)[C@H]3CC[C@@H](c4ccc(Cl)c(Cl)c4)c4ccccc43)c(O)c2)C1=O` showed a Kd on Sulfhydryl oxidase 1 of 16 µM. In turn, `NCC[C@@H](NC(=O)c1ccc(-c2cccc(NC(=O)c3ccc4nc(O)c(O)nc4c3)c2)o1)C(=O)N1CCNCC1` displayed a Kd in experiment [12] of 6.5 µM.

With `OCc1ccc2nsnc2c1`, the Kd in [2] was 56 µM.

Regarding `CN1CCN(c2ccc(-c3ccc4nc(-c5ccc(OCCCC(=O)N6CCN(c7nncc8sccc78)CC6)cc5)[nH]c4c3)cc2)CC1`, the IC50 against microRNA 21 [13] and on microRNA 21 [14] was roughly 1 µM each time. The same compound registered a Kd at microRNA 21 [15] of 0.352 µM. In the case of `CCc1nc2ccccc2cc1C(=O)N[C@@H](CSSC[C@H](NC(=O)c1cc2ccccc2nc1CC)C(=O)N1CCC[C@H]1C(=O)N[C@@H](Cc1ccccc1)C(=O)NCCCCCC(N)=O)C(=O)N1CCC[C@H]1C(=O)N[C@@H](Cc1ccccc1)C(=O)NCCCCCC(N)=O`, the Kd in [3] was 4.1 µM. `CN1CCN(c2ccc(-c3ccc4nc(-c5ccc(OCCCC(=O)CCCN=[N+]=[N-])cc5)[nH]c4c3)cc2)CC1` gave a Kd at microRNA 21 [15] of 18 µM. Take `Cc1nc(N)nc(N)n1`: binding on RNA was characterised by a dissociation constant (Kd) of 110 µM. The same measure, in the same setting: then `Nc1nc2[nH]nc(N)n2n1`, with 370 µM. `Nc1csc(Br)n1` had a Kd on RNA of 650 µM. In [3], `CCc1nc2cc3ccccc3cc2cc1C(=O)N(C)[C@@H](CCn1cc(C[C@@H](C(=O)N2CCC[C@H]2C(=O)N(C)[C@@H](Cc2ccccc2)C(=O)NCCCN)N(C)C(=O)c2cc3cc4ccccc4cc3nc2CC)nn1)C(=O)N1CCC[C@H]1C(=O)N(C)[C@@H](Cc1ccccc1)C(=O)NCCCN` gave a Kd of 0.016 µM. `CN1CCN(c2ccc3nc(-c4ccc5[nH]c(-c6cccc(OCCCC(=O)NCCN=[N+]=[N-])c6)nc5c4)[nH]c3c2)CC1` gave an IC50 in experiment [8] of roughly 0.02 µM. In experiment [9], this compound showed a Kd of 1.3 µM.

`NC1=Nc2cccc3cccc(c23)N1`: in experiment [5], the IC50 stood at 50 µM.

`CCN1CCN(Cc2csc(-c3ccccc3)n2)CC1`: the IC50 at Bacterial 70S ribosome was 2.8 µM. `c1cc(N2CCNCC2)ccn1` came in with a Kd in experiment [2] of 620 µM. Still for that read-out and setting: next, `Nc1ccc2nccnc2c1`: 22 µM. `COc1ccc2nc3cc(F)ccc3c(Nc3ccc(C(=O)Nc4ccncc4)cc3)c2c1` showed a Kd in experiment [3] of 1 µM. In the case of `Cc1nc(CN2CCN(Cc3csc(-c4ccccc4)n3)CC2)cs1`, the IC50 at Bacterial 70S ribosome is 9.1 µM.

For orientation: EC50 means the concentration needed to bring the measured effect to its halfway point. In general, Kd refers to a measure of binding affinity in units of concentration. High values mean weaker binding, low ones tighter binding. A word on the MIC: it is the lowest concentration that inhibits growth of the organism. The IC50 is the concentration that gives 50% inhibition. Usually inhibition stands for the change of the read-out against control, counted positive when it falls. High values mean strong suppression, low ones little suppression.
